{"source": "patent US20090291857A1", "about": "“METHODS TO IDENTIFY INHIBITORS OF THE UNFOLDED PROTEIN RESPONSE” (THE BOARD OF TRUSTEES OF THE LELAND STANFORD JUNIOR …, priority 2006, published 2009)", "key": {"[1]": {"system": "HT1080 tumor xenografts", "assay": "Immunohistochemical analysis of tumor xenografts", "format": "in vivo, mouse", "details": "three doses, 50 mg/kg", "description": "Tumor-bearing mice were injected i.p. with hypoxyprobe (50 mg/kg) 1 hour prior to sacrifice. Mice were euthanised under anesthesia by cervical dislocation, and tumors were surgically resected, embedded in OCT compound (Sakura Tissue Tek), and frozen at −80° C. Tumors were sectioned at 8 μm, fixed in 4% paraformaldehyde, and blocked in PBS-4% BSA. Tissue sections were incubated overnight in block solution containing antisera specific for hypoxyprobe (1:250) and cleaved caspase-3 (1:400). Slides were washed three times with block solution and incubated for 2 hours at room temperature with anti-mouse Alexa 488 or anti-rabbit Alexa 594 (Invitrogen, San Diego, Calif.). Slides were washed five times in block solution, and coverslips mounted with Permount supplemented with DAPI.\nImmunohistochemical analysis of tumor xenografts. […] D. Quantification of tumor immunohistochemistry. At least 8 randomly chosen fields (>300 cells/field) per tumor were scored for pimonidazole and cleaved caspase-3 staining. A minimum of 3 tumors (250-300 mm^3 at harvest) were analyzed per treatment group. […]\nWe further examined tumors from control and irestatin-treated mice for differences in cell survival. […] The increase in apoptosis was most pronounced in hypoxic tissue regions of tumors, as determined by co-immunoreactivity for pimonidazole adducts (FIG. 14C, bottom panel). […]"}, "[2]": {"system": "XBP-1s", "assay": "Western immunoblot analysis of XBP-1s in HT1080 cells", "format": "cell-based, human", "details": "2 μM; for levels of XBP-1s under hypoxia: 24 hours of hypoxia", "description": "Cells were harvested, lysed, and analyzed by Western blot using anti-XBP-1 antisera (lower panel) or anti-HIF-1 antisera (top panel) to confirm hypoxia exposure.\nCells (2×10^6) were cultured in 10-cm dishes, collected using a cell scraper at 4° C., and lysed by addition of 150 μl cell lysis buffer [50 mM Tris pH 7.4, 150 mM NaCl, 10% glycerol, 0.5% Triton X-100. 0.5% NP-40, 2 mM Na3VO4, 20 mM beta-glycerophosphate, 10 mM NaF, 1 mM DTT, 1 mM PMSF). Lysates were centrifuged for 5 min at 10,000×g, and proteins (˜40 μg) were resolved by SDS-PAGE followed by semi-dry transfer to nitrocellulose membranes. Membranes were blocked in TBS-5% milk supplemented with 0.1% Tween-20. The blots were then probed overnight with relevant antibodies, washed, and incubated for 2 hours with species-specific secondary antibodies conjugated to horseradish peroxidase. After washing in block solution, immunoreactive material was detected by enhanced chemiluminescence (SuperSignal West Dura Extended, Pierce, Inc., Rockville, Ill.).\nA. XBP-luciferase reporter construct. Firefly luciferase was inserted downstream of the IRE1α splice site in human XBP-1 to enable the conditional translation of luciferase under ER stress in an IRE1α-dependent manner. B. Selective inhibition of the XBP-luciferase reporter by irestatin 9389. […] After 24 hours, luciferase activity was analyzed in an automated plate reader. For each cell line, values are expressed as the percent inhibition of the median for Tm/Tg-treated wells, corrected for background. […] Values are expressed as the fold increases over uninduced levels. […] Cells were harvested, lysed, and analyzed by immunoblotting with antisera specific for HIF-1α (top), XBP-1s (middle) or actin (bottom). […] Total RNA was analyzed by Northern blotting using radiolabeled probes specific for P58^IPK or DER-1. […]\nSince these assays employed a chimeric XBP-luciferase substrate, we next determined whether irestatin 9389 could inhibit the function of endogenous XBP-1s. […]"}}, "data": [{"molecule": "Cc1csc(NC(=O)CSc2nc3c(c(C(F)(F)F)c2C#N)CCC3)n1", "note": "[Compound 9389]", "values": [{"measurement": "cleaved caspase-3 in tumors relative to vehicle", "setting": "[1]", "result": "significant increase"}, {"measurement": "levels of XBP-1s under hypoxia", "setting": "[2]; listed as Irestatin 9389", "result": "blocks the accumulation of XBP-1s"}, {"measurement": "levels of XBP-1s under hypoxia", "setting": "[2]; listed as irestatin 9389", "result": "decreased levels of XBP-1s"}, {"measurement": "accumulation of XBP-1s following treatment with Tm", "setting": "[2]; Tm 4 μg/ml 20 hours", "result": "blocked the accumulation of XBP-1s"}]}]}
